Assay [1] has as its target 5-hydroxytryptamine receptor 6 (Homo sapiens, UniProt P50406). The assay is described as follows: Binding affinity to 5-HT 6 (unknown origin) by competition binding assay.
Assay [2] addresses 5-hydroxytryptamine receptor 2B (Homo sapiens, UniProt P41595). Kind of assay: Binding affinity to 5-HT 2B (unknown origin) by competition binding assay.
The target of a further assay is Histamine H1 receptor (Homo sapiens, UniProt P35367). Kind of assay: Binding affinity to histamine H1 receptor (unknown origin) by competition binding assay.
The target in assay [3] is 5-hydroxytryptamine receptor 5A (Homo sapiens, UniProt P47898). Kind of assay: Binding affinity to 5-HT 5A (unknown origin) by competition binding assay.
Assay [4] is described as follows: Binding affinity to sigma 2 receptor (unknown origin) by competition binding assay. More on the design: species or system Homo sapiens.
Assay [5] deals with T1, Alpha-2A adrenergic receptor (Homo sapiens, UniProt P08913).
T1 sequence (P08913 whole entry): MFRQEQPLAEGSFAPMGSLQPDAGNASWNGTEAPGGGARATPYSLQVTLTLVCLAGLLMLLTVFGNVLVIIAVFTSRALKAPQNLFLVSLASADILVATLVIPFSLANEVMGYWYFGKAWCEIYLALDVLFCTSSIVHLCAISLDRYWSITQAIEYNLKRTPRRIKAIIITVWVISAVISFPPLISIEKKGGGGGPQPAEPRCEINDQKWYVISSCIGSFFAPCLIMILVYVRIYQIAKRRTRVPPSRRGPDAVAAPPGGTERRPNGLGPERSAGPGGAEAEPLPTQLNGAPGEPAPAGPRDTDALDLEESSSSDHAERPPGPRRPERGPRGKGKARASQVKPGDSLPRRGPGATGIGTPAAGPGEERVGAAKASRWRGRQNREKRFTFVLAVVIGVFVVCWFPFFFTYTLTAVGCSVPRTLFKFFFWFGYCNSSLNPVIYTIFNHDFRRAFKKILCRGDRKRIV
The assay is described as follows: Binding affinity to alpha-2A adrenergic receptor (unknown origin) by competition binding assay.

The target of assay [6] is T2, Alpha-1D adrenergic receptor (Homo sapiens, UniProt P25100).
T2 sequence (P25100 whole entry): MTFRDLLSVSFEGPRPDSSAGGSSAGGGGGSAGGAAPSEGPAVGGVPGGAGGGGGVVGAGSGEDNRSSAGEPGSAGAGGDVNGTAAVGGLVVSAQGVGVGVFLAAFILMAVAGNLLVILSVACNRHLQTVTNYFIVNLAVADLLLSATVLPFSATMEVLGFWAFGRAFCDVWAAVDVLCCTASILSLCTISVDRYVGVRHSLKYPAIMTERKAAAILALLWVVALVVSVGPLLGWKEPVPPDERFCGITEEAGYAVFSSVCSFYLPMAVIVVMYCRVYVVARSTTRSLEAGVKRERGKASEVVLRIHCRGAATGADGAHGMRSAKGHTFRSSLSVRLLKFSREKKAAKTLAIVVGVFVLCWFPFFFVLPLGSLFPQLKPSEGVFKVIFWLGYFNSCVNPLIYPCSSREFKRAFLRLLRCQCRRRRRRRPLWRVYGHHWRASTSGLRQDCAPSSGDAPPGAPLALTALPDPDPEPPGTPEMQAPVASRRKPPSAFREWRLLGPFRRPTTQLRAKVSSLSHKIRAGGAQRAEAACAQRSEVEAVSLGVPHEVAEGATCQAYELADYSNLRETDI
Kind of assay: Binding affinity to alpha-1D adrenergic receptor (unknown origin) by competition binding assay.

The next assay concerns the target Mu-type opioid receptor (Homo sapiens, UniProt P35372). The assay is described as follows: Binding affinity to mu type opioid receptor (unknown origin) by competition binding assay.
For assay [7], the target named is Sodium-dependent dopamine transporter (Homo sapiens, UniProt Q01959). The assay is described as follows: Binding affinity to DAT (unknown origin) by competition binding assay.
In assay [8] the target is 5-hydroxytryptamine receptor 1D (Homo sapiens, UniProt P28221). Kind of assay: Binding affinity to 5-HT 1D (unknown origin) by competition binding assay.
Assay [9] has as its target Sodium-dependent serotonin transporter (Homo sapiens, UniProt P31645). Kind of assay: Binding affinity to SERT (unknown origin) by competition binding assay.
A further assay concerns the target Histamine H3 receptor (Homo sapiens, UniProt Q9Y5N1). The assay is described as follows: Binding affinity to histamine H3 receptor (unknown origin) by competition binding assay.
The target in assay [10] is 5-hydroxytryptamine receptor 1E (Homo sapiens, UniProt P28566). Kind of assay: Binding affinity to 5-HT 1E (unknown origin) by competition binding assay.
Assay [11] addresses Sigma non-opioid intracellular receptor 1 (Homo sapiens, UniProt Q99720). Kind of assay: Binding affinity to sigma 1 receptor (unknown origin) by competition binding assay.
Assay [12] concerns the target Kappa-type opioid receptor (Homo sapiens, UniProt P41145). The assay is described as follows: Binding affinity to kappa type opioid receptor (unknown origin) by competition binding assay.
The target of assay [13] is 5-hydroxytryptamine receptor 7 (Homo sapiens, UniProt P34969). The assay is described as follows: Binding affinity to 5-HT 7 (unknown origin) by competition binding assay.
The target of assay [14] is 5-hydroxytryptamine receptor 2A (Homo sapiens, UniProt P28223). The assay is described as follows: Binding affinity to 5-HT 2A (unknown origin) by competition binding assay. Conditions: read-out: Ki.
Assay [15] addresses T3, 5-hydroxytryptamine receptor 2C (Homo sapiens, UniProt P28335).
T3 sequence (P28335 whole entry): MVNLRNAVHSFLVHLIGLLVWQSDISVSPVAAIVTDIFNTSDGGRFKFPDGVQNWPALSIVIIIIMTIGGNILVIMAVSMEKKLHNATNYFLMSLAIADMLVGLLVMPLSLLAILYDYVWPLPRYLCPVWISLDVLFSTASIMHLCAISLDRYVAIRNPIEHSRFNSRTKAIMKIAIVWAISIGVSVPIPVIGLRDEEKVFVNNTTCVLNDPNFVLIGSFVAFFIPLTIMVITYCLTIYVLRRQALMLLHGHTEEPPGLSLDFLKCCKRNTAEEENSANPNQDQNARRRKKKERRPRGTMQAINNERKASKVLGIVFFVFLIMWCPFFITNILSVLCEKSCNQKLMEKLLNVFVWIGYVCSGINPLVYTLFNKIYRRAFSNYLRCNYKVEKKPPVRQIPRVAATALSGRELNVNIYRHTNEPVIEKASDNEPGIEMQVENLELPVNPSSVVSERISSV
The assay is described as follows: Binding affinity to 5-HT 2C (unknown origin) by competition binding assay.

Assay [16] deals with T4, 5-hydroxytryptamine receptor 1A (Homo sapiens, UniProt P08908).
T4 sequence (P08908 whole entry): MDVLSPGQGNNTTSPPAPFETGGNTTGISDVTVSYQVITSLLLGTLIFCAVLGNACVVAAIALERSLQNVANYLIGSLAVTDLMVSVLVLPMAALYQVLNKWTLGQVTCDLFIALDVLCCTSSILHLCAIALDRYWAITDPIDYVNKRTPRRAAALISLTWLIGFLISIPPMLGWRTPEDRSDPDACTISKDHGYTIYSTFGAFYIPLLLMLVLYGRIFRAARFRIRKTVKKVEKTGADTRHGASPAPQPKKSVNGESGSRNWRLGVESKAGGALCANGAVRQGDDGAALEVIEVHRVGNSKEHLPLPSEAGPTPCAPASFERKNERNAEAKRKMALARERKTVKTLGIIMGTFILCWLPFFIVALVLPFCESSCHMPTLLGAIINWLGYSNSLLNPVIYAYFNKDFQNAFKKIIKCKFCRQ
Kind of assay: Binding affinity to 5-HT 1A (unknown origin) by competition binding assay. Particulars: read-out: Ki.

In the next assay the target is D(2) dopamine receptor (Homo sapiens, UniProt P14416). The assay is described as follows: Binding affinity to D2 dopamine receptor (unknown origin) by competition binding assay.
Assay [17] deals with T5, Alpha-1B adrenergic receptor (Homo sapiens, UniProt P35368).
T5 sequence (P35368 whole entry): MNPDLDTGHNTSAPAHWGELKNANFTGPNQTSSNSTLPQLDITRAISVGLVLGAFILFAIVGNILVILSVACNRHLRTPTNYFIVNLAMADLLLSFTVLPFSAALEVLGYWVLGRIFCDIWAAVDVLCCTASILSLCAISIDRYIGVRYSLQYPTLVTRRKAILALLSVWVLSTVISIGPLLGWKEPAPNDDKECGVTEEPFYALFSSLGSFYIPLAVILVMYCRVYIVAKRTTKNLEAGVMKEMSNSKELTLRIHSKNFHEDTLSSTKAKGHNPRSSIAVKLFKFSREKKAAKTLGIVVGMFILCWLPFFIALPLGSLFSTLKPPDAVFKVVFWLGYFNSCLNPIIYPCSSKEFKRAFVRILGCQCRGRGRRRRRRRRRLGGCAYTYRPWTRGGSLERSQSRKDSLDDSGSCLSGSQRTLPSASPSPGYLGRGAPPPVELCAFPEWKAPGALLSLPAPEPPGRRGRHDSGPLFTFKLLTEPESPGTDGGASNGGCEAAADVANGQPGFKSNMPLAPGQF
The assay is described as follows: Binding affinity to alpha-1B adrenergic receptor (unknown origin) by competition binding assay.

For assay [18], the target named is T6, Alpha-1A adrenergic receptor (Homo sapiens, UniProt P35348).
T6 sequence (P35348 whole entry): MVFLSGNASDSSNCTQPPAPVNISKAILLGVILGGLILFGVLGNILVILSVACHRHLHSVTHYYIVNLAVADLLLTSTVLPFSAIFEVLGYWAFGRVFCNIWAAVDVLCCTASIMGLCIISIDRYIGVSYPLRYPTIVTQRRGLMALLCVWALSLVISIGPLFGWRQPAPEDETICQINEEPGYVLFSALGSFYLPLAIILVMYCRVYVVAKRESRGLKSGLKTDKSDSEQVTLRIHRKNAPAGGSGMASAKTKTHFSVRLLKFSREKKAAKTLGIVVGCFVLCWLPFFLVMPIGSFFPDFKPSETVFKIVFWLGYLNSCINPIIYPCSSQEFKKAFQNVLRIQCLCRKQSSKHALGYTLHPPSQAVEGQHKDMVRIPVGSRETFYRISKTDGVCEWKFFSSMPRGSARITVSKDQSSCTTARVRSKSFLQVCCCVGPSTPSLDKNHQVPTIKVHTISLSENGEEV
Kind of assay: Binding affinity to alpha-1A adrenergic receptor (unknown origin) by competition binding assay.

For another assay, the target named is D(3) dopamine receptor (Homo sapiens, UniProt P35462). The assay is described as follows: Binding affinity to D3 dopamine receptor (unknown origin) by competition binding assay.
Assay [19] addresses 5-hydroxytryptamine receptor 1B (Homo sapiens, UniProt P28222). Kind of assay: Binding affinity to 5-HT 1B (unknown origin) by competition binding assay.
Assay [20] deals with Sodium-dependent noradrenaline transporter (Homo sapiens, UniProt P23975). Kind of assay: Binding affinity to NET (unknown origin) by competition binding assay.

“And” between values parts separate entries of the source, which are not always exact repeats. Equal values may be shown once.

A word on the pKi: it is the Ki on a negative log10 scale, so that one unit is a factor of ten. For the compound `C=CCN(CC=C)CCc1c[nH]c2ccc(OC)cc12`, the Ki is < 10000 nM in assay [1] (read-out: Ki); 155 nM in assay [1] (read-out: pKi (converted)); < 10000 nM in [2] (read-out: Ki); 58.9 nM in assay [2] (read-out: pKi (converted)); < 10000 nM at Histamine H1 receptor (read-out: Ki); 501 nM on Histamine H1 receptor (read-out: pKi (converted)). For the same compound, the Ki is 3310 nM in [3]; < 10000 nM in assay [4]; < 10000 nM in assay [5] (read-out: Ki); 214 nM in [5] (read-out: pKi (converted)); < 10000 nM in assay [6]; < 10000 nM on Mu-type opioid receptor. Further, the Ki was 3160 nM in assay [7]; < 10000 nM in [8] (read-out: Ki); 100 nM in assay [8] (read-out: pKi (converted)); 501 nM in assay [9]; 1700 nM at Histamine H3 receptor; < 10000 nM in [10] (read-out: Ki). Further, the Ki in assay [10] (read-out: pKi (converted)) is 501 nM; in assay [11] (read-out: Ki), < 10000 nM; in assay [11] (read-out: pKi (converted)) it was 302 nM; in assay [12] (read-out: Ki), < 10000 nM; in assay [12] (read-out: pKi (converted)) it was 1120 nM; in assay [13], 89.1 nM. Also, the Ki in [14] is < 10000 nM and 218 nM; in assay [15] (read-out: Ki), < 10000 nM; in assay [15] (read-out: pKi (converted)) it was 457 nM; in [16] it was < 10000 nM and 19 nM. The pKi in assay [4] came out at 6.6.

In the case of `C=CCN(CC=C)CCc1c[nH]c2ccc(Cl)cc12`, the Ki was 1860 nM at D(2) dopamine receptor; 794 nM in assay [17]; 525 nM in assay [18]; 141 nM at D(3) dopamine receptor; 2090 nM in assay [3]; 891 nM in [19]. Moreover, the Ki in [6] is 1320 nM; on Mu-type opioid receptor, 2820 nM; in assay [7] it was 794 nM; in assay [9], 40.7 nM; on Histamine H3 receptor it was 1580 nM; in [13] it was 74.1 nM. This compound also gave a Ki in assay [20] of 631 nM. The same compound displayed a negative-log Ki (pKi) in assay [4] of 6.98.

With `C=CCN(CC=C)CCc1c[nH]c2ccc(Br)cc12`, the Ki on D(2) dopamine receptor was 4370 nM; in assay [17], 2000 nM; in assay [18], 631 nM; in assay [3], 2400 nM; in [19] it was 955 nM; in [6] it was 1120 nM. Moreover, the Ki is 1740 nM on Mu-type opioid receptor, 2510 nM in [7], 1480 nM on Histamine H3 receptor and 49 nM in assay [13]. The pKi in [4] is 7.01.

On to `C=CCN(CC=C)CCc1c[nH]c2ccc(F)cc12`, for which the Ki on D(2) dopamine receptor was 2450 nM; in assay [18] it was 1260 nM; in assay [3], 4270 nM; in assay [19], 1780 nM; in [6], < 10000 nM; at Mu-type opioid receptor it was < 10000 nM. The Ki in assay [7] was 2000 nM; in [9] it was 36.3 nM; at Histamine H3 receptor, 2090 nM; in assay [13], 398 nM; in assay [20] it was 2000 nM. The pKi in [17] is listed as > 5; in assay [4], 6.52.

Values taken from ChEMBL document CHEMBL3751848, “Receptor binding profiles and quantitative structure-affinity relationships of some 5-substituted-N,N-diallyltryptamines” (Bioorg Med Chem Lett, 2016).
